From ChEMBL document CHEMBL5674888, “PRMT5 Promotes Human Lung Cancer Cell Apoptosis via Akt/Gsk3β Signaling Induced by Resveratrol” (Cell Transplant, 2019)
Activity calls are given as the source filed them.

What was measured:
Assay type in all cases: functional, cell-based
A549 [1] = assay: Antiproliferative activity against resveratrol-induced human lung A549 cells at 100 nM measured after 5 days by CCK-8 assay; conditions: time 5.0 day
ASTC-a-1 [2] = assay: Antiproliferative activity against resveratrol-induced human lung ASTC-a-1 cells at 100 nM measured after 5 days by CCK-8 assay; conditions: time 5.0 day
A549 [3] = assay: Induction of apoptosis in resveratrol-induced human lung A549 cells at 100 nM assessed as increase in cleaved caspase-3 expression measured by immunoblotting method
ASTC-a-1 [4] = assay: Induction of apoptosis in resveratrol-induced human lung ASTC-a-1 cells at 100 nM assessed as increase in cleaved caspase-3 expression measured by immunoblotting method
A549 [5] = assay: Induction of apoptosis in resveratrol-induced human lung A549 cells assessed as decrease in pAkt level at Thr308 measured by immunoblotting method
A549 [6] = assay: Induction of apoptosis in resveratrol-induced human lung A549 cells assessed as decrease in pAkt level at Ser473 measured by immunoblotting method
A549 [7] = assay: Induction of apoptosis in resveratrol-induced human lung A549 cells assessed as decrease in pGSK3beta level at Ser9 measured by immunoblotting method
A549 [8] = assay: Induction of apoptosis in resveratrol-induced human lung A549 cells assessed as decrease in Cyclin D1 level measured by immunoblotting method
A549 [9] = assay: Induction of apoptosis in resveratrol-induced human lung A549 cells assessed as decrease in Cyclin E1 level measured by immunoblotting method

Measured: Activity

O=C(NC[C@H](O)CN1CCc2ccccc2C1)c1ccnc(NC2CCC2)c1
active: all assays above
